Measured values as given in patent US20260317356A1, “SMALL MOLECULE MODULATORS OF OGG1” (AZKARRA THERAPEUTICS, INC., priority 2023, published 2026).

The molecules below were run against hOGG1 (Homo sapiens, UniProt O15527) (assay: Surface Plasma Resonance with hOGG1 to measure compound affinity (OGG1 SPR Kd)). Conditions: Biacore T-200, immobilized his-tagged OGG1; pH 7.4; 2% DMSO; single-cycle kinetics.
Chain of hOGG1 (O15527 12-323): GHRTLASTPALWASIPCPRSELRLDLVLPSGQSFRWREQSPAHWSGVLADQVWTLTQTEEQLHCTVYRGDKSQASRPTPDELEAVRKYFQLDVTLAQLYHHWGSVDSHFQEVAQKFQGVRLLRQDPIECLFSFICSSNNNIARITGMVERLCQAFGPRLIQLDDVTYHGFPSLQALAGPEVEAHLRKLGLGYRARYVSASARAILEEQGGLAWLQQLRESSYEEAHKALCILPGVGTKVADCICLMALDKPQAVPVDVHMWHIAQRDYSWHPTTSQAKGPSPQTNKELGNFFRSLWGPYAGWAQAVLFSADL
Format: binding
Set-up: Protein His-hOGG1 (12-323) was prepared
Description: Surface Plasma Resonance with hOGG1 to Measure Compound Affinity (OGG1 SPR Kd); All the SPR studies were performed on a Biacore T-200 instrument (Cytiva life sciences) using series S NTA sensor chip (cat #BR-1005-32, Cytiva life sciences). Recombinant his-tagged OGG1 (mol. wt. 36003; ChemPartner, Shanghai, China) was immobilized on NTA sensor chip via Ni^2+/NTA chelation using NTA reagent kit (Cytiva life sciences; cat #289950) as per manufacturer's recommended protocol. The running buffer during immobilization contained HEPES (20 mM, pH 7.4), 150 mM NaCl, 0.5 mM TCEP (tris(2-carboxyethyl)phosphine), and 0.005% Tween-20. NTA sensor chip (experimental cell) was first conditioned by injecting regeneration solution (350 mM EDTA, flow rate 30 μL/min, 2 injections 60 each). Additional wash with 50 mM NaOH was used whenever the chip was regenerated (flow rate 30 μL/min, 1 injection of 60 s). The sensor chip was then activated with 0.5 mM NiCl2 (flow rate 10 μL/min, 2 injection of 60 s, leading to a baseline increase of ~40 RU), and the excess Ni^2+ was removed using immobilization buffer containing 3 mM EDTA (flow rate 10 μL/min, 1 injection of 60 s). Finally, OGG1 (diluted to 6.2 μg/mL in running buffer) was injected on the activated sensor chip at a flow rate of 10 μL/min until immobilization level reached ~6000 RU. Any loosely bound protein was removed by passing the immobilization buffer overnight at 20 μL/min. At this point, the drift in baseline was ~0.01 RU/s and the final immobilization level was ~2500 RU. Reference cell was left untreated. SPR binding experiments were performed using binding buffer (20 mM HEPES (pH 7.4), 150 mM NaCl, 0.5 mM TCEP, 0.005% Tween-20, and 2% DMSO) at a flow rate of 30 μL/min. Single-cycle kinetics approach was used for binding analysis which consisted of sequential injections of increasing concentrations of test compound (a 3-fold serial dilution with 5 concentrations; highest 750 or 1500 nM; with final DMSO concentration at 2%) over the immobilized protein without regeneration step between each sample injection. Each injection was 45 seconds long (contact time), followed by a final dissociation of 600 sec. The Biacore T-200 Evaluation software 3.1 (GE Healthcare) was used to determine kinetic parameters from SPR data. All the reported sensograms were reference subtracted and corrected for refractive index contributions from solvent using 8-point solvent correction (1.4 to 2.8% DMSO in binding buffer). Data were fit to both steady state and 1:1 kinetic model to obtain Kon, Koff and binding affinity (Kd).
Work on `COc1ccc(NC(=O)[C@]2(C)CC[C@H](N3Cc4c(C)cccc4NC3=O)CC2)cc1Cl` (single isomer, unassigned) [Example 103, (1s,4s)-N-(3-chloro-4-methoxyphenyl)-1-methyl-4-(5-methyl-2-oxo-1,2-dihydroquinazolin-3(4H)-yl)cyclohexanecarboxamide] yielded a Kd of 10 to 100 nM. `COc1cc(NC(=O)[C@H]2CC[C@@H](N3Cc4c(C)cc(N(C)C)cc4C3=O)CC2)ccc1C` [Example 135, (1s,4s)-4-(6-(Dimethylamino)-4-methyl-1-oxoisoindolin-2-yl)-N-(3-methoxy-4-methylphenyl)cyclohexane-1-carboxamide] gave a Kd of 10 to 100 nM. With `COc1ccc(NC(=O)[C@H]2CC[C@@H](N3Cc4c(C)cc(NCCN(C)C)cc4NC3=O)CC2)cc1C` [Example 97, (1s,4s)-4-(7-(2-(dimethylamino)ethylamino)-5-methyl-2-oxo-1,2-dihydroquinazolin-3(4H)-yl)-N-(4-methoxy-3-methylphenyl)cyclohexanecarboxamide] the Kd was 10 to 100 nM. Molecule `COc1cc(NC(=O)[C@H]2CC[C@@H](N3Cc4c(C)ccc(OCC5CNC5)c4NC3=O)CC2)ccc1C` [Example 44, (1s,4s)-4-(8-(Azetidin-3-ylmethoxy)-5-methyl-2-oxo-1,2-dihydroquinazolin-3(4H)-yl)-N-(3-methoxy-4-methylphenyl)cyclohexanecarboxamide] has a Kd of 10 to 100 nM. For `COc1ccc(NC(=O)[C@]2(C)CC[C@H](N3Cc4c(C)ccc(OC)c4NC3=O)CC2)cc1C` (single isomer, unassigned) [Example 11, (1s,4s)-N-(3-methyl-4-methoxyphenyl)-4-(8-methoxy-5-methyl-2-oxo-1,2-dihydroquinazolin-3(4H)-yl)-1-methylcyclohexanecarboxamide], the Kd was ≤ 10 nM. `COc1cc(NC(=O)[C@H]2CC[C@@H](N3Cc4c(C)ccc(OC5CNC5)c4NC3=O)CC2)ccc1C` [Example 45] showed a Kd of 10 to 100 nM. `COc1ccc(NC(=O)[C@H]2CC[C@@H](N3Cc4c(C)cc(NCCN(C)C)cc4C3=O)CC2)cc1C#N` [Example 259, (1s,4s)-N-(3-Cyano-4-methoxyphenyl)-4-(6-(2-(dimethylamino)ethylamino)-4-methyl-1-oxoisoindolin-2-yl)cyclohexanecarboxamide] gave a Kd of 10 to 100 nM. For `COc1cc(NC(=O)[C@H]2CC[C@@H](N3Cc4c(C)ccc(C#N)c4NC3=O)CC2)ccc1C` [Example 59, (1s,4s)-4-(8-cyano-5-methyl-2-oxo-1,2-dihydroquinazolin-3(4H)-yl)-N-(3-methoxy-4-methylphenyl)cyclohexanecarboxamide], the Kd was 10 to 100 nM. With `COc1ccc(NC(=O)[C@H]2CC[C@@H](N3Cc4c(C)cc(NCCN(C)C)cc4C3=O)CC2)cc1C` [Example 256, (1s,4s)-4-(6-(2-(Dimethylamino)ethylamino)-4-methyl-1-oxoisoindolin-2-yl)-N-(4-methoxy-3-methylphenyl)cyclohexanecarboxamide] the Kd was ≤ 10 nM. `CNCCNc1cc(C)c2c(c1)C(=O)N([C@H]1CC[C@@H](C(=O)Nc3ccc(C)c(OC)c3)CC1)C2` [Example 193, (1s,4s)-N-(3-methoxy-4-methylphenyl)-4-(4-methyl-6-(2-(methylamino)ethylamino)-1-oxoisoindolin-2-yl)cyclohexanecarboxamide] was tested, and the Kd was 10 to 100 nM. `COc1cc(NC(=O)[C@H]2CC[C@@H](N3Cc4c(C)ccc(CNC(C)=O)c4NC3=O)CC2)ccc1C` [Example 17, (1s,4s)-4-(8-(Acetamidomethyl)-5-methyl-2-oxo-1,2-dihydroquinazolin-3(4H)-yl)-N-(3-methoxy-4-methylphenyl)cyclohexanecarboxamide] was tested, and the Kd was ≤ 10 nM. `COc1cc(NC(=O)[C@H]2CC[C@@H](N3Cc4c(C)cc(OCCN5CC(F)(F)C5)cc4C3=O)CC2)ccc1C` [Example 255, (1s,4s)-4-(6-(2-(3,3-Difluoroazetidin-1-yl)ethoxy)-4-methyl-1-oxoisoindolin-2-yl)-N-(3-methoxy-4-methylphenyl)cyclohexanecarboxamide] was tested, and the Kd was 10 to 100 nM.
